According to PubChem BioAssay (NCI):
Where “and” joins values, the source holds several entries; their conditions need not be identical. Equal entries are not always repeated.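 Cultured in 96-well plates, cells were exposed to test compound for 48 hours across five concentrations. GI50 marks 50% less growth. TGI: concentration producing complete growth inhibition.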

What was measured:
Assay in all cases: DTP human tumour cell line panel, 48 h
M14 melanoma = system: M14 melanoma
A549 NSCLC = system: A549 NSCLC
OVCAR-5 ovarian = system: OVCAR-5 ovarian
HOP-62 NSCLC = system: HOP-62 NSCLC
RPMI-8226 leukemia = system: RPMI-8226 leukemia
OVCAR-3 ovarian = system: OVCAR-3 ovarian
NCI-H522 lung = system: NCI-H522 lung
TK-10 renal = system: TK-10 renal
SK-MEL-2 melanoma = system: SK-MEL-2 melanoma
SK-MEL-5 melanoma = system: SK-MEL-5 melanoma
XF 498 CNS = system: XF 498 CNS
SF-268 CNS = system: SF-268 CNS
HCC-2998 colon = system: HCC-2998 colon
SF-539 CNS = system: SF-539 CNS
UO-31 renal = system: UO-31 renal
UACC-257 melanoma = system: UACC-257 melanoma
COLO 205 colon = system: COLO 205 colon
MOLT-4 leukemia = system: MOLT-4 leukemia
SW-620 colon = system: SW-620 colon
SNB-19 CNS = system: SNB-19 CNS
KM12 colon = system: KM12 colon
SNB-75 CNS = system: SNB-75 CNS
NCI-H460 lung = system: NCI-H460 lung
IGROV1 ovarian = system: IGROV1 ovarian
CCRF-CEM leukemia = system: CCRF-CEM leukemia
MALME-3M melanoma = system: MALME-3M melanoma
HCT-116 colon = system: HCT-116 colon
HL-60(TB) leukemia = system: HL-60(TB) leukemia
K-562 leukemia = system: K-562 leukemia
HOP-92 NSCLC = system: HOP-92 NSCLC
OVCAR-8 ovarian = system: OVCAR-8 ovarian
HCT-15 colon = system: HCT-15 colon
A498 renal = system: A498 renal
SR leukemia = system: SR leukemia
DMS 114 small cell lung = system: DMS 114 small cell lung
DLD-1 colon = system: DLD-1 colon
SN12C renal = system: SN12C renal
SK-OV-3 ovarian = system: SK-OV-3 ovarian
OVCAR-4 ovarian = system: OVCAR-4 ovarian
ACHN renal = system: ACHN renal
KM20L2 colon = system: KM20L2 colon
LXFL 529 NSCLC = system: LXFL 529 NSCLC
M19-MEL melanoma = system: M19-MEL melanoma
CAKI-1 renal = system: CAKI-1 renal
U251 CNS = system: U251 CNS
SF-295 CNS = system: SF-295 CNS
UACC-62 melanoma = system: UACC-62 melanoma
EKVX NSCLC = system: EKVX NSCLC
HT29 colon = system: HT29 colon
NCI-H23 lung = system: NCI-H23 lung
DMS 273 small cell lung = system: DMS 273 small cell lung
SK-MEL-28 melanoma = system: SK-MEL-28 melanoma
LOX IMVI melanoma = system: LOX IMVI melanoma
RXF 393 renal = system: RXF 393 renal
SNB-78 CNS = system: SNB-78 CNS
786-0 renal = system: 786-0 renal
NCI-H226 lung = system: NCI-H226 lung

## CC(C)OP(=O)(OC(C)C)/C(F)=N/Nc1ccc([N+](=O)[O-])cc1
M14 melanoma
  TGI: > 100 µM
A549 NSCLC
  TGI: > 100 µM
OVCAR-5 ovarian
  TGI: > 100 µM
HOP-62 NSCLC
  TGI: > 100 µM
RPMI-8226 leukemia
  TGI: > 100 µM
OVCAR-3 ovarian
  TGI: > 100 µM
NCI-H522 lung
  TGI: > 100 µM
TK-10 renal
  TGI: > 100 µM
SK-MEL-2 melanoma
  TGI: > 100 µM
SK-MEL-5 melanoma
  TGI: > 100 µM
XF 498 CNS
  TGI: > 100 µM
SF-268 CNS
  TGI: > 100 µM
HCC-2998 colon
  TGI: > 100 µM
SF-539 CNS
  TGI: > 100 µM
UO-31 renal
  TGI: > 100 µM
UACC-257 melanoma
  TGI: > 100 µM
COLO 205 colon
  TGI: > 100 µM
MOLT-4 leukemia
  TGI: > 100 µM
SW-620 colon
  TGI: > 100 µM
SNB-19 CNS
  TGI: > 100 µM
KM12 colon
  TGI: > 100 µM
SNB-75 CNS
  TGI: > 100 µM
NCI-H460 lung
  TGI: > 100 µM
IGROV1 ovarian
  TGI: > 100 µM
CCRF-CEM leukemia
  TGI: > 100 µM
MALME-3M melanoma
  TGI: > 100 µM
HCT-116 colon
  TGI: > 100 µM
HL-60(TB) leukemia
  TGI: > 100 µM
K-562 leukemia
  TGI: > 100 µM
HOP-92 NSCLC
  TGI: > 100 µM
OVCAR-8 ovarian
  TGI: > 100 µM
HCT-15 colon
  TGI: > 100 µM
A498 renal
  TGI: > 100 µM
SR leukemia
  TGI: > 100 µM
DMS 114 small cell lung
  TGI: > 100 µM
DLD-1 colon
  TGI: > 100 µM
SN12C renal
  TGI: > 100 µM
SK-OV-3 ovarian
  TGI: > 100 µM
OVCAR-4 ovarian
  TGI: > 100 µM
ACHN renal
  TGI: > 100 µM
KM20L2 colon
  TGI: > 100 µM
LXFL 529 NSCLC
  TGI: > 100 µM
M19-MEL melanoma
  TGI: > 100 µM
CAKI-1 renal
  TGI: > 100 µM
U251 CNS
  TGI: > 100 µM
SF-295 CNS
  TGI: > 100 µM
UACC-62 melanoma
  TGI: > 100 µM
EKVX NSCLC
  TGI: > 100 µM
HT29 colon
  TGI: > 100 µM
NCI-H23 lung
  TGI: > 100 µM
DMS 273 small cell lung
  TGI: > 100 µM
SK-MEL-28 melanoma
  TGI: > 100 µM

## NCCSSC/C=C\CSSCCN
M14 melanoma
  TGI: > 100 µM and 42.5 µM
RPMI-8226 leukemia
  TGI: 99.5 µM and 58.8 µM
OVCAR-3 ovarian
  GI50: > 68.6 µM and 25.1 µM
  TGI: > 100 µM and 67.1 µM
NCI-H522 lung
  TGI: 31.4 µM and 29.1 µM
SK-MEL-5 melanoma
  GI50: > 85.7 µM and 26.9 µM
  TGI: > 100 µM and 77.9 µM
XF 498 CNS
  GI50: 79.7 µM and 21.6 µM
  TGI: > 100 µM and 69.5 µM
SF-268 CNS
  GI50: > 64.9 µM and 29.5 µM
  TGI: > 100 µM
SF-539 CNS
  TGI: 70.5 µM and 36.5 µM
UACC-257 melanoma
  GI50: 76.8 µM and 29 µM
  TGI: > 100 µM
LOX IMVI melanoma
  GI50: 26.2 µM and 13 µM
  TGI: > 59.9 µM and 27.9 µM
COLO 205 colon
  GI50: 42.7 µM and 18.4 µM
  TGI: > 100 µM and 34 µM
MOLT-4 leukemia
  TGI: 65.2 µM and 53.9 µM
SW-620 colon
  TGI: > 64.8 µM and 28.3 µM
KM12 colon
  GI50: 65 µM and 23.4 µM
  TGI: > 100 µM and 62 µM
SNB-75 CNS
  TGI: > 100 µM
NCI-H460 lung
  GI50: 98.4 µM and 22.2 µM
  TGI: > 100 µM and 51.9 µM
CCRF-CEM leukemia
  TGI: 68.6 µM
MALME-3M melanoma
  GI50: > 40.4 µM and 17.8 µM
  TGI: > 55.8 µM and 78 µM
HCT-116 colon
  TGI: > 100 µM
HL-60(TB) leukemia
  TGI: 29.6 µM and 45.7 µM
K-562 leukemia
  GI50: 6.31 µM and 15.7 µM
  TGI: 25.4 µM and 40.5 µM
HOP-92 NSCLC
  TGI: > 100 µM
OVCAR-8 ovarian
  TGI: > 69.5 µM and 34.6 µM
HCT-15 colon
  TGI: > 100 µM
RXF 393 renal
  TGI: > 100 µM
SNB-78 CNS
  TGI: > 100 µM
DMS 114 small cell lung
  TGI: > 95.1 µM and 44 µM
DLD-1 colon
  GI50: 33.8 µM and 15.6 µM
  TGI: > 100 µM and 34.9 µM
SN12C renal
  GI50: 43.5 µM and 19 µM
  TGI: > 100 µM and 38 µM
OVCAR-4 ovarian
  TGI: 77.3 µM and 41.2 µM
KM20L2 colon
  GI50: 76.3 µM and 21.6 µM
  TGI: > 100 µM and 45 µM
LXFL 529 NSCLC
  TGI: > 67.2 µM and 44.6 µM
M19-MEL melanoma
  TGI: > 100 µM and 95.2 µM
CAKI-1 renal
  TGI: > 100 µM
U251 CNS
  TGI: > 100 µM and 67.4 µM
SF-295 CNS
  GI50: > 90.3 µM and 27.6 µM
  TGI: > 100 µM and 80.8 µM
UACC-62 melanoma
  GI50: 41.2 µM and 20.2 µM
  TGI: > 100 µM and 41.6 µM
786-0 renal
  GI50: 56.4 µM and 27.1 µM
  TGI: > 100 µM and 82 µM
HT29 colon
  TGI: > 100 µM and 58.9 µM
NCI-H23 lung
  TGI: > 100 µM
DMS 273 small cell lung
  TGI: > 100 µM and 60.8 µM
SK-MEL-28 melanoma
  GI50: 56 µM and 24.7 µM
  TGI: > 100 µM and 77.8 µM

## O=C1OC(Cl)C(N=P(c2ccccc2)(c2ccccc2)c2ccccc2)=C1Cl (configuration not stated)
M14 melanoma
  TGI: > 100 µM
A549 NSCLC
  TGI: > 100 µM
HOP-62 NSCLC
  TGI: > 100 µM
RPMI-8226 leukemia
  TGI: > 100 µM
OVCAR-3 ovarian
  TGI: > 100 µM
NCI-H522 lung
  TGI: > 100 µM
TK-10 renal
  TGI: > 100 µM
SK-MEL-2 melanoma
  TGI: > 100 µM
SK-MEL-5 melanoma
  TGI: > 100 µM
XF 498 CNS
  TGI: > 100 µM
SF-268 CNS
  TGI: > 100 µM
HCC-2998 colon
  TGI: > 100 µM
NCI-H226 lung
  TGI: > 100 µM
SF-539 CNS
  TGI: > 100 µM
UO-31 renal
  TGI: > 100 µM
UACC-257 melanoma
  TGI: > 100 µM
LOX IMVI melanoma
  TGI: > 100 µM
COLO 205 colon
  TGI: > 100 µM
MOLT-4 leukemia
  TGI: > 100 µM
SW-620 colon
  TGI: > 100 µM
SNB-19 CNS
  TGI: > 100 µM
KM12 colon
  TGI: > 100 µM
SNB-75 CNS
  TGI: 85.4 µM
IGROV1 ovarian
  TGI: > 100 µM
CCRF-CEM leukemia
  TGI: > 100 µM
MALME-3M melanoma
  TGI: > 100 µM
HCT-116 colon
  TGI: > 100 µM
HL-60(TB) leukemia
  TGI: > 100 µM
K-562 leukemia
  TGI: > 100 µM
HOP-92 NSCLC
  TGI: > 100 µM
OVCAR-8 ovarian
  TGI: > 100 µM
A498 renal
  TGI: > 100 µM
SNB-78 CNS
  TGI: > 100 µM
SR leukemia
  TGI: > 100 µM
DMS 114 small cell lung
  TGI: > 100 µM
DLD-1 colon
  TGI: > 100 µM
SN12C renal
  TGI: > 100 µM
SK-OV-3 ovarian
  TGI: > 100 µM
OVCAR-4 ovarian
  TGI: > 100 µM
LXFL 529 NSCLC
  TGI: > 100 µM
M19-MEL melanoma
  TGI: > 100 µM
CAKI-1 renal
  TGI: > 100 µM
SF-295 CNS
  TGI: > 100 µM
UACC-62 melanoma
  TGI: > 100 µM
EKVX NSCLC
  TGI: > 100 µM
786-0 renal
  TGI: > 100 µM
HT29 colon
  TGI: > 100 µM
NCI-H23 lung
  TGI: > 100 µM
DMS 273 small cell lung
  TGI: > 100 µM
SK-MEL-28 melanoma
  TGI: > 100 µM
